As a reminder, the AC50 is the midpoint of the concentration-response curve, whichever way the signal moves. Low values mean activity at low concentration, high ones activity only at high concentration.

Where only a bound is given, the exact number is not on record here.

Among the targets are D(1A) dopamine receptor (Homo sapiens, UniProt P21728); Mu-type opioid receptor (Homo sapiens, UniProt P35372); D(3) dopamine receptor (Homo sapiens, UniProt P35462).
The target of assay [1] is T1, Oxysterols receptor LXR-beta (Homo sapiens, UniProt P55055).
T1 sequence (P55055 whole entry): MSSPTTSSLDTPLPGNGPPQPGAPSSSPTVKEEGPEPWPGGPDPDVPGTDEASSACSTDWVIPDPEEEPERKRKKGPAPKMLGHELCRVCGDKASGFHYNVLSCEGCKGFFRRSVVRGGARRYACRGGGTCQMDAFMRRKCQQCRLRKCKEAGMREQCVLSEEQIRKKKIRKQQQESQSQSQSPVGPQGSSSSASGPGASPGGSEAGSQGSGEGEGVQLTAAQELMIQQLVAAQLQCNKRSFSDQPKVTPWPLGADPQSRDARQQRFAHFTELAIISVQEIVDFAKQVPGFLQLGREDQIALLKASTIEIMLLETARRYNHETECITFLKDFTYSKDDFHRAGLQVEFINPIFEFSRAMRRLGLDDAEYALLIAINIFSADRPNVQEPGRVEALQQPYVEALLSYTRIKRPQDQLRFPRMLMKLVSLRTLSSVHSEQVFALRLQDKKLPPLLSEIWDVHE
The class given is functional.

Assay [2] deals with T2, Retinoic acid receptor beta (Homo sapiens, UniProt P10826).
T2 sequence (P10826 whole entry): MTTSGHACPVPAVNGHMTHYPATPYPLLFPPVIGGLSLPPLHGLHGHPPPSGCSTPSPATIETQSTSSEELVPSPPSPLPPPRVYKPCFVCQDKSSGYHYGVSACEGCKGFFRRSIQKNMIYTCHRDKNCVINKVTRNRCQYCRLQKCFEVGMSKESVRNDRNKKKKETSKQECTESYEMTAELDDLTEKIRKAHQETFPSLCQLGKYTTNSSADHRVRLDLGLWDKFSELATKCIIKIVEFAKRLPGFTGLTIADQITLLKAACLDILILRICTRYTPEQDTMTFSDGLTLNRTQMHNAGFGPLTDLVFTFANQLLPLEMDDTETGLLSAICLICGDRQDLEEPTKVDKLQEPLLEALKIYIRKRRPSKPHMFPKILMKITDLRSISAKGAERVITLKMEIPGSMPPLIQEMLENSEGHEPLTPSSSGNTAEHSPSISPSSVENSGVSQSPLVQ
The class given is functional, cell-based.

Another assay deals with T3, Adenosine receptor A3 (Homo sapiens, UniProt P0DMS8).
T3 sequence (P0DMS8 whole entry): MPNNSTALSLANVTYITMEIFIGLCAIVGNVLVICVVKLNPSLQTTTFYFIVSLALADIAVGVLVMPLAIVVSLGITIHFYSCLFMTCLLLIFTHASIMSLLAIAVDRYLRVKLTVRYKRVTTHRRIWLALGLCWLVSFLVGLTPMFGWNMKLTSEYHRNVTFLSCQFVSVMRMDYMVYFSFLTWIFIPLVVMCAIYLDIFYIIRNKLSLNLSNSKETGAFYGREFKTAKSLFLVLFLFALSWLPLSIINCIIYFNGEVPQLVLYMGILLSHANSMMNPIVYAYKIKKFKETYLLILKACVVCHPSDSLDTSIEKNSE

Assay [3] has as its target T4, Alpha-2A adrenergic receptor (Homo sapiens, UniProt P08913).
T4 sequence (P08913 whole entry): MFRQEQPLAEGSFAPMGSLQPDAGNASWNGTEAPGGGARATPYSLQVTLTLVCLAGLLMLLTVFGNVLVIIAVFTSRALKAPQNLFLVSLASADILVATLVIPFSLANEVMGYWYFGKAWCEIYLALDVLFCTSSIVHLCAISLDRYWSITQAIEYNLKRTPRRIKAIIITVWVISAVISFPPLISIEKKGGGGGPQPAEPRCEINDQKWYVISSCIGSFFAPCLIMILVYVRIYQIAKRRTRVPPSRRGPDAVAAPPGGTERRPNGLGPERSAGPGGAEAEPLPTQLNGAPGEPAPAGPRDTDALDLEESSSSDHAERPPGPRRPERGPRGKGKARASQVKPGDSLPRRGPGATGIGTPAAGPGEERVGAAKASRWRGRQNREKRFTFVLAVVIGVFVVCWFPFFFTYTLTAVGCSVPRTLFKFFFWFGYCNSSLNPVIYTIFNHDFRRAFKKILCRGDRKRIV

Assay [4] concerns the target T5, 5-hydroxytryptamine receptor 1A (Homo sapiens, UniProt P08908).
T5 sequence (P08908 whole entry): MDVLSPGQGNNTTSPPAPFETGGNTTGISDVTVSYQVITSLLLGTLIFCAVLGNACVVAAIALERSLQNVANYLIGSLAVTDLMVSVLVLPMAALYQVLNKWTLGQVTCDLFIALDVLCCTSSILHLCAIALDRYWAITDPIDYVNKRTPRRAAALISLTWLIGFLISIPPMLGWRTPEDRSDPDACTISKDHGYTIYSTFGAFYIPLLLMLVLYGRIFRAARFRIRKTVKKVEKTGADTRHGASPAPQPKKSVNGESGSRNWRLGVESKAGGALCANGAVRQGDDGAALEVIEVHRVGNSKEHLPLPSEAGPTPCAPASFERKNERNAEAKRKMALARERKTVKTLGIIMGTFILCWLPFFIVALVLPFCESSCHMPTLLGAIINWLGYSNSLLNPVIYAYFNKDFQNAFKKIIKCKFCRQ

Assay [5] addresses T6, Muscarinic acetylcholine receptor M2 (Homo sapiens, UniProt P08172).
T6 sequence (P08172 whole entry): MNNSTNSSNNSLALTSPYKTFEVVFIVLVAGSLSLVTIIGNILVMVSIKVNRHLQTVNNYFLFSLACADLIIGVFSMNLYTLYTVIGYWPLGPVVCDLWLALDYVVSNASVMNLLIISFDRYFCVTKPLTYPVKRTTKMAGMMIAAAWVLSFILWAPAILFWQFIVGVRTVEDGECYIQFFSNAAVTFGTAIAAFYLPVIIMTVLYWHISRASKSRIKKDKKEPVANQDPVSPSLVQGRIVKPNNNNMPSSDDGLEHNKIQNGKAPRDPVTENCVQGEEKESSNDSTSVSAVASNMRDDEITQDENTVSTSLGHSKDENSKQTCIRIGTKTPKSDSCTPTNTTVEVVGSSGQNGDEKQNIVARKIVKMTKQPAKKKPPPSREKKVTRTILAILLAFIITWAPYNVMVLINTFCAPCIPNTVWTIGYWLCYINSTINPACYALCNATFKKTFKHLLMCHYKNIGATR
Note: assay procedure not described here.

Chain of D(3) dopamine receptor (P35462 whole entry): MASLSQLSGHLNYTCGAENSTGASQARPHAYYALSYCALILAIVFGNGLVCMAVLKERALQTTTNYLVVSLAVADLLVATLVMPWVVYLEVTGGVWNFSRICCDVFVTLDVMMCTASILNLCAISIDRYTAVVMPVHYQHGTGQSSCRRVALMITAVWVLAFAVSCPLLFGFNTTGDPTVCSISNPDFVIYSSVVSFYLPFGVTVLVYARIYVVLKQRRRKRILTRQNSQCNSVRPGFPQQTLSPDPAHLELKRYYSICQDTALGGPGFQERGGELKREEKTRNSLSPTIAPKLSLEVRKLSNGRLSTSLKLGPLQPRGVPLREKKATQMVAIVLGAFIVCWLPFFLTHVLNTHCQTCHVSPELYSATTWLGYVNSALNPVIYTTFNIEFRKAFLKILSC
Chain of Mu-type opioid receptor (P35372 whole entry): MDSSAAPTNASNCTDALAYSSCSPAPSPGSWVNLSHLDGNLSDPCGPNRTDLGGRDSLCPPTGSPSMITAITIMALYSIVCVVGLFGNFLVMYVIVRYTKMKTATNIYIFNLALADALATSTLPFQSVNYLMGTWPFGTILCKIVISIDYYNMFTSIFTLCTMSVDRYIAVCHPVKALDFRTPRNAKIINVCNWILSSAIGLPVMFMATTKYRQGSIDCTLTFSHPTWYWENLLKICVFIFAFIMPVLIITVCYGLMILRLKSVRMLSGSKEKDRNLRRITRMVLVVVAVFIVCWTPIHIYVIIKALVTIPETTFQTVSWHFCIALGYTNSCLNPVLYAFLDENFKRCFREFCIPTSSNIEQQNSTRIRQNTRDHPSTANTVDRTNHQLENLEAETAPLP
Chain of D(1A) dopamine receptor (P21728 whole entry): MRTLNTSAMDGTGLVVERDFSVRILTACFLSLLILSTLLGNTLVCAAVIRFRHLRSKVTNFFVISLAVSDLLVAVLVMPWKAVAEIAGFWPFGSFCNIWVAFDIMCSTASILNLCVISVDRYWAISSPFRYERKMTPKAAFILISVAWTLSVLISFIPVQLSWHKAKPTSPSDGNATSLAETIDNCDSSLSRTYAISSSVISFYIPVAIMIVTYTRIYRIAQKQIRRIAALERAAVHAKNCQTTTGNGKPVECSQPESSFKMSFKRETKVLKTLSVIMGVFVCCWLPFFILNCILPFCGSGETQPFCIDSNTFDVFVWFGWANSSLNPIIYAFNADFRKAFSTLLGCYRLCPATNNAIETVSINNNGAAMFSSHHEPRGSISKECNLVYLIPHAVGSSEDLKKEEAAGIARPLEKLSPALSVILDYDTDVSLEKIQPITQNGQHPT

Turning to `CC(C)c1c(C(=O)Nc2ccccc2)c(-c2ccccc2)c(-c2ccc(F)cc2)n1CC[C@@H](O)C[C@@H](O)CC(=O)O` [ATORVASTATIN], the AC50 in assay [1] and in [2] was > 30 µM throughout.

On to `CCN1CCC[C@H]1CNC(=O)c1cc(S(N)(=O)=O)ccc1OC` [LEVOSULPIRIDE], for which half-maximal activity at D(1A) dopamine receptor (AC50) was put at 12 µM.

For `Nc1nc2ccc(OC(F)(F)F)cc2s1` [RILUZOLE], the AC50 on Adenosine receptor A3 was 29.2 µM; at Mu-type opioid receptor, > 30 µM; on D(3) dopamine receptor it was > 30 µM; in assay [3], > 30 µM; in assay [4], > 30 µM; in [5] it was > 30 µM.

Consider BIVALIRUDIN, for which the AC50 (at Mu-type opioid receptor; at D(3) dopamine receptor; in assay [3]; in [4]; in assay [5]) was > 30 µM throughout.

Source of the values: ChEMBL document CHEMBL5291721, “A preclinical secondary pharmacology resource illuminates target-adverse drug reaction associations of marketed drugs” (Nat Commun, 2023).
